According to patent US7138361B2, “Herbicidal heterocycles” (E. I. du Pont de Nemours and Company, priority 2000, dated 2006):

What was measured:
Format in all cases: in vivo
Nightshade = assay: Test C preemergence; details: visual evaluation after 12 to 14 days
[1] = test system: barnyardgrass (Echinochloa crus-galli); assay: Test C flooded paddy test; details: for Barnyardgrass plant response rating: Flooded Paddy, scale 0 to 100, 0 no effect, 100 complete control; for Plant response rating, Barnyardgrass: flooded paddy test, scale 0 to 100 (0 no effect, 100 complete control)
Outline: (§1)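 Visual ratings (0 = no effect, 100 = complete control) were made 12–14 days after treatment, relative to greenhouse controls. Plants in the flooded paddy test were rice, smallflower flatsedge, duck salad and barnyardgrass, treated at the 2-leaf stage.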

[2] = test system: smallflower flatsedge (Cyperus difformis); assay: Test C flooded paddy test; details: for Flatsedge plant response rating: Flooded Paddy, scale 0 to 100, 0 no effect, 100 complete control; for Plant response rating, Flatsedge: flooded paddy test, scale 0 to 100 (0 no effect, 100 complete control)
Outline: as §1

[3] = test system: duck salad (Heteranthera limosa); assay: Test C flooded paddy test; details: for Ducksalad plant response rating: Flooded Paddy, scale 0 to 100, 0 no effect, 100 complete control; for Plant response rating, Ducksalad: flooded paddy test, scale 0 to 100 (0 no effect, 100 complete control)
Outline: as §1

rice (Oryza saliva) = assay: Test C flooded paddy test; details: for Rice plant response rating: Flooded Paddy, scale 0 to 100, 0 no effect, 100 complete control; for Plant response rating, Rice: flooded paddy test, scale 0 to 100 (0 no effect, 100 complete control)
Outline: as §1

Sunflower [4] = assay: Test C preemergence; details: scale 0 to 100
Sunflower [5] = assay: Test C preemergence; details: scale 0 to 100, 0 no effect, 100 complete control

CCCC(C)c1ccn(C2SCN(c3cccc(C(F)(F)F)c3)C2=O)n1 (stereo not drawn) [Compound 92]
Plant response rating (0 to 100), Nightshade (Nightshade; Rate 500 g/ha): 80 | Barnyardgrass plant response rating ([1]; Rate 250 g/ha): 100 | Barnyardgrass plant response rating ([1]; Rate 500 g/ha): 100 | Plant response rating, Barnyardgrass ([1]; Rate 62 g/ha): 50 | Plant response rating, Barnyardgrass ([1]; Rate 125 g/ha): 100 | Flatsedge plant response rating ([2]; Rate 250 g/ha): 100 | Flatsedge plant response rating ([2]; Rate 500 g/ha): 100 | Plant response rating, Flatsedge ([2]; Rate 62 g/ha): 90 | Plant response rating, Flatsedge ([2]; Rate 125 g/ha): 100 | Ducksalad plant response rating ([3]; Rate 250 g/ha): 100 | Ducksalad plant response rating ([3]; Rate 500 g/ha): 100 | Plant response rating, Ducksalad ([3]; Rate 62 g/ha): 80 | Plant response rating, Ducksalad ([3]; Rate 125 g/ha): 100 | Rice plant response rating (rice (Oryza saliva); Rate 250 g/ha): 30 | Rice plant response rating (rice (Oryza saliva); Rate 500 g/ha): 30 | Plant response rating, Rice (rice (Oryza saliva); Rate 62 g/ha): 0 | Plant response rating, Rice (rice (Oryza saliva); Rate 125 g/ha): 0 | Plant response rating, Sunflower (Sunflower [4]; Rate 62 g/ha): 0 | Plant response rating, Sunflower (Sunflower [5]; Rate 250 g/ha): 40

CC(C)(C)c1ccn(C2CCN(c3cccc(OC(F)(F)F)c3)C2=O)n1 (stereo not drawn) [Compound 49]
Plant response rating (0 to 100), Nightshade (Nightshade; Rate 250 g/ha): 50 | Barnyardgrass plant response rating ([1]; Rate 250 g/ha): 100 | Barnyardgrass plant response rating ([1]; Rate 500 g/ha): 100 | Plant response rating, Barnyardgrass ([1]; Rate 62 g/ha): 100 | Plant response rating, Barnyardgrass ([1]; Rate 125 g/ha): 100 | Flatsedge plant response rating ([2]; Rate 250 g/ha): 100 | Flatsedge plant response rating ([2]; Rate 500 g/ha): 100 | Plant response rating, Flatsedge ([2]; Rate 62 g/ha): 100 | Plant response rating, Flatsedge ([2]; Rate 125 g/ha): 100 | Ducksalad plant response rating ([3]; Rate 250 g/ha): 90 | Ducksalad plant response rating ([3]; Rate 500 g/ha): 100 | Plant response rating, Ducksalad ([3]; Rate 62 g/ha): 50 | Plant response rating, Ducksalad ([3]; Rate 125 g/ha): 70 | Rice plant response rating (rice (Oryza saliva); Rate 250 g/ha): 30 | Rice plant response rating (rice (Oryza saliva); Rate 500 g/ha): 90 | Plant response rating, Rice (rice (Oryza saliva); Rate 62 g/ha): 20 | Plant response rating, Sunflower (Sunflower [4]; Rate 31 g/ha): 0 | Plant response rating, Sunflower (Sunflower [5]; Rate 125 g/ha): 20

CCCC(C)c1ccn(C2CCN(c3cccc(OC)c3)C2=O)n1 (stereo not drawn) [Compound 99]
Plant response rating (0 to 100), Nightshade (Nightshade; Rate 500 g/ha): 10 | Barnyardgrass plant response rating ([1]; Rate 250 g/ha): 20 | Barnyardgrass plant response rating ([1]; Rate 500 g/ha): 60 | Plant response rating, Barnyardgrass ([1]; Rate 62 g/ha): 0 | Plant response rating, Barnyardgrass ([1]; Rate 125 g/ha): 0 | Flatsedge plant response rating ([2]; Rate 250 g/ha): 100 | Flatsedge plant response rating ([2]; Rate 500 g/ha): 100 | Plant response rating, Flatsedge ([2]; Rate 62 g/ha): 0 | Plant response rating, Flatsedge ([2]; Rate 125 g/ha): 90 | Ducksalad plant response rating ([3]; Rate 250 g/ha): 0 | Ducksalad plant response rating ([3]; Rate 500 g/ha): 0 | Plant response rating, Ducksalad ([3]; Rate 62 g/ha): 0 | Plant response rating, Ducksalad ([3]; Rate 125 g/ha): 0 | Rice plant response rating (rice (Oryza saliva); Rate 250 g/ha): 50 | Rice plant response rating (rice (Oryza saliva); Rate 500 g/ha): 80 | Plant response rating, Rice (rice (Oryza saliva); Rate 62 g/ha): 0 | Plant response rating, Rice (rice (Oryza saliva); Rate 125 g/ha): 50 | Plant response rating, Sunflower (Sunflower [4]; Rate 62 g/ha): 0 | Plant response rating, Sunflower (Sunflower [5]; Rate 250 g/ha): 0

CSc1cccc(N2CCC(n3ccc(C(C)(C)C)n3)C2=O)c1 (stereo not drawn) [Compound 86]
Plant response rating (0 to 100), Nightshade (Nightshade; Rate 500 g/ha): 10 | Barnyardgrass plant response rating ([1]; Rate 250 g/ha): 100 | Barnyardgrass plant response rating ([1]; Rate 500 g/ha): 100 | Plant response rating, Barnyardgrass ([1]; Rate 62 g/ha): 0 | Plant response rating, Barnyardgrass ([1]; Rate 125 g/ha): 30 | Flatsedge plant response rating ([2]; Rate 250 g/ha): 70 | Plant response rating, Flatsedge ([2]; Rate 62 g/ha): 0 | Plant response rating, Flatsedge ([2]; Rate 125 g/ha): 0 | Ducksalad plant response rating ([3]; Rate 250 g/ha): 100 | Plant response rating, Ducksalad ([3]; Rate 62 g/ha): 0 | Plant response rating, Ducksalad ([3]; Rate 125 g/ha): 0 | Rice plant response rating (rice (Oryza saliva); Rate 250 g/ha): 0 | Rice plant response rating (rice (Oryza saliva); Rate 500 g/ha): 20 | Plant response rating, Rice (rice (Oryza saliva); Rate 62 g/ha): 0 | Plant response rating, Rice (rice (Oryza saliva); Rate 125 g/ha): 0 | Plant response rating, Sunflower (Sunflower [4]; Rate 62 g/ha): 0 | Plant response rating, Sunflower (Sunflower [5]; Rate 250 g/ha): 20

COc1cccc(N2CCC(n3ccc(C(C)(C)C)n3)C2=O)c1 (stereo not drawn) [Compound 87]
Plant response rating (0 to 100), Nightshade (Nightshade; Rate 500 g/ha): 90 | Barnyardgrass plant response rating ([1]; Rate 250 g/ha): 70 | Barnyardgrass plant response rating ([1]; Rate 500 g/ha): 100 | Plant response rating, Barnyardgrass ([1]; Rate 62 g/ha): 0 | Plant response rating, Barnyardgrass ([1]; Rate 125 g/ha): 70 | Flatsedge plant response rating ([2]; Rate 250 g/ha): 100 | Flatsedge plant response rating ([2]; Rate 500 g/ha): 100 | Plant response rating, Flatsedge ([2]; Rate 62 g/ha): 0 | Plant response rating, Flatsedge ([2]; Rate 125 g/ha): 100 | Ducksalad plant response rating ([3]; Rate 250 g/ha): 50 | Ducksalad plant response rating ([3]; Rate 500 g/ha): 100 | Plant response rating, Ducksalad ([3]; Rate 62 g/ha): 0 | Plant response rating, Ducksalad ([3]; Rate 125 g/ha): 50 | Rice plant response rating (rice (Oryza saliva); Rate 250 g/ha): 20 | Rice plant response rating (rice (Oryza saliva); Rate 500 g/ha): 80 | Plant response rating, Rice (rice (Oryza saliva); Rate 62 g/ha): 0 | Plant response rating, Rice (rice (Oryza saliva); Rate 125 g/ha): 20 | Plant response rating, Sunflower (Sunflower [4]; Rate 62 g/ha): 20 | Plant response rating, Sunflower (Sunflower [5]; Rate 250 g/ha): 20

CCCC(C)c1ccn(C2CCN(c3cccc(C(F)(F)F)c3)C2=O)n1 (stereo not drawn) [Compound 100]
Plant response rating (0 to 100), Nightshade (Nightshade; Rate 500 g/ha): 0 | Barnyardgrass plant response rating ([1]; Rate 250 g/ha): 0 | Barnyardgrass plant response rating ([1]; Rate 500 g/ha): 60 | Plant response rating, Barnyardgrass ([1]; Rate 62 g/ha): 0 | Plant response rating, Barnyardgrass ([1]; Rate 125 g/ha): 0 | Flatsedge plant response rating ([2]; Rate 250 g/ha): 70 | Flatsedge plant response rating ([2]; Rate 500 g/ha): 90 | Plant response rating, Flatsedge ([2]; Rate 62 g/ha): 70 | Plant response rating, Flatsedge ([2]; Rate 125 g/ha): 70 | Ducksalad plant response rating ([3]; Rate 250 g/ha): 0 | Ducksalad plant response rating ([3]; Rate 500 g/ha): 40 | Plant response rating, Ducksalad ([3]; Rate 62 g/ha): 0 | Plant response rating, Ducksalad ([3]; Rate 125 g/ha): 0 | Rice plant response rating (rice (Oryza saliva); Rate 250 g/ha): 50 | Rice plant response rating (rice (Oryza saliva); Rate 500 g/ha): 80 | Plant response rating, Rice (rice (Oryza saliva); Rate 62 g/ha): 0 | Plant response rating, Rice (rice (Oryza saliva); Rate 125 g/ha): 50 | Plant response rating, Sunflower (Sunflower [4]; Rate 62 g/ha): 0 | Plant response rating, Sunflower (Sunflower [5]; Rate 250 g/ha): 0

CCC(C)c1ccn(C2CCN(c3cccc(OC)c3)C2=O)n1 (stereo not drawn) [Compound 95]
Plant response rating (0 to 100), Nightshade (Nightshade; Rate 500 g/ha): 45 | Barnyardgrass plant response rating ([1]; Rate 250 g/ha): 100 | Barnyardgrass plant response rating ([1]; Rate 500 g/ha): 100 | Plant response rating, Barnyardgrass ([1]; Rate 62 g/ha): 70 | Plant response rating, Barnyardgrass ([1]; Rate 125 g/ha): 70 | Flatsedge plant response rating ([2]; Rate 250 g/ha): 100 | Flatsedge plant response rating ([2]; Rate 500 g/ha): 100 | Plant response rating, Flatsedge ([2]; Rate 62 g/ha): 90 | Plant response rating, Flatsedge ([2]; Rate 125 g/ha): 100 | Ducksalad plant response rating ([3]; Rate 250 g/ha): 100 | Ducksalad plant response rating ([3]; Rate 500 g/ha): 100 | Plant response rating, Ducksalad ([3]; Rate 62 g/ha): 70 | Plant response rating, Ducksalad ([3]; Rate 125 g/ha): 90 | Rice plant response rating (rice (Oryza saliva); Rate 250 g/ha): 70 | Rice plant response rating (rice (Oryza saliva); Rate 500 g/ha): 90 | Plant response rating, Rice (rice (Oryza saliva); Rate 62 g/ha): 0 | Plant response rating, Rice (rice (Oryza saliva); Rate 125 g/ha): 20 | Plant response rating, Sunflower (Sunflower [4]; Rate 62 g/ha): 0 | Plant response rating, Sunflower (Sunflower [5]; Rate 250 g/ha): 0

CC(C)Oc1cccc(N2CCC(n3ccc(C(C)(C)C)n3)C2=O)c1 (stereo not drawn) [Compound 70]
Plant response rating (0 to 100), Nightshade (Nightshade; Rate 500 g/ha): 70 | Barnyardgrass plant response rating ([1]; Rate 250 g/ha): 100 | Barnyardgrass plant response rating ([1]; Rate 500 g/ha): 100 | Plant response rating, Barnyardgrass ([1]; Rate 62 g/ha): 60 | Flatsedge plant response rating ([2]; Rate 250 g/ha): 90 | Flatsedge plant response rating ([2]; Rate 500 g/ha): 90 | Plant response rating, Flatsedge ([2]; Rate 62 g/ha): 90 | Ducksalad plant response rating ([3]; Rate 250 g/ha): 100 | Ducksalad plant response rating ([3]; Rate 500 g/ha): 100 | Plant response rating, Ducksalad ([3]; Rate 62 g/ha): 100 | Rice plant response rating (rice (Oryza saliva); Rate 250 g/ha): 60 | Rice plant response rating (rice (Oryza saliva); Rate 500 g/ha): 90 | Plant response rating, Rice (rice (Oryza saliva); Rate 62 g/ha): 20 | Plant response rating, Sunflower (Sunflower [4]; Rate 31 g/ha): 0 | Plant response rating, Sunflower (Sunflower [5]; Rate 125 g/ha): 20 | Plant response rating, Sunflower (Sunflower [5]; Rate 250 g/ha): 60

CC(C)c1cccc(N2CCC(n3ccc(C(C)(C)C)n3)C2=O)c1 (stereo not drawn) [Compound 111]
Plant response rating (0 to 100), Nightshade (Nightshade; Rate 500 g/ha): 0 | Barnyardgrass plant response rating ([1]; Rate 250 g/ha): 20 | Barnyardgrass plant response rating ([1]; Rate 500 g/ha): 30 | Plant response rating, Barnyardgrass ([1]; Rate 62 g/ha): 0 | Plant response rating, Barnyardgrass ([1]; Rate 125 g/ha): 0 | Flatsedge plant response rating ([2]; Rate 250 g/ha): 90 | Flatsedge plant response rating ([2]; Rate 500 g/ha): 90 | Plant response rating, Flatsedge ([2]; Rate 62 g/ha): 50 | Plant response rating, Flatsedge ([2]; Rate 125 g/ha): 60 | Ducksalad plant response rating ([3]; Rate 250 g/ha): 0 | Ducksalad plant response rating ([3]; Rate 500 g/ha): 0 | Plant response rating, Ducksalad ([3]; Rate 62 g/ha): 0 | Plant response rating, Ducksalad ([3]; Rate 125 g/ha): 0 | Rice plant response rating (rice (Oryza saliva); Rate 250 g/ha): 0 | Rice plant response rating (rice (Oryza saliva); Rate 500 g/ha): 0 | Plant response rating, Rice (rice (Oryza saliva); Rate 62 g/ha): 0 | Plant response rating, Rice (rice (Oryza saliva); Rate 125 g/ha): 0 | Plant response rating, Sunflower (Sunflower [4]; Rate 62 g/ha): 0 | Plant response rating, Sunflower (Sunflower [5]; Rate 250 g/ha): 0
